According to US20240124491A1, “METHODS AND COMPOUNDS FOR TREATING FRIEDREICH'S ATAXIA” (Design Therapeutics, Inc., priority 2021, published 2024):

The compounds below were run on human FXN (assay: EC50 assay: FXN mRNA expression by qRT-PCR in GM15850 cells after 48 hrs compound treatment). Details: Homo sapiens, 48 hrs incubation, hFXN expression normalized to hGAPDH (qRT-PCR), read-out: EC50 WT (nM, 48 hr).
Format: cell-based
Summary of the method: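 FXN transcript, normalized to GAPDH by TaqMan qRT-PCR, read out after 48 hrs of compound on GM15850 cells plated at 150,000 per well. Dosing used five 3-fold steps from 150 nM final, vehicle 0.01% DMSO.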
For CCCCCCCCCCCCCCCC(=O)Nc1ccc(C2=N[C@@H](CC(=O)Nc3ccc(OCCOCCOCCOCCOCCOCCOCCOCCOCCNC(=O)CCNC(=O)c4nc(NC(=O)CCNC(=O)c5cc(NC(=O)c6nc(NC(=O)CCNC(=O)c7cc(NC(=O)c8nccn8C)cn7C)cn6C)cn5C)cn4C)cc3)c3nnc(C)n3-c3sc(C)c(C)c32)cc1 [Compound 204], the EC50 was > 500 nM.
Cc1sc2c(c1C)C(c1ccc(Cl)cc1)=N[C@@H](CC(=O)N1CC(N3CCN(CCOCCOCCOCCOCCOCCOCCNC(=O)CCNC(=O)c4nc(NC(=O)CCNC(=O)c5cc(NC(=O)c6nc(NC(=O)CCNC(=O)c7cc(NC(=O)c8nccn8C)cn7C)cn6C)cn5C)cn4C)CC3)C1)c1nnc(C)n1-2 [Compound 62] showed an EC50 of 100 to 500 nM.
In the case of Cc1sc2c(c1C)C(c1ccc(Cl)cc1)=N[C@@H](CC(=O)N1CCC(C#CC#CC3CCN(CCOCCOCCNC(=O)CCNC(=O)c4nc(NC(=O)CCNC(=O)c5cc(NC(=O)c6nc(NC(=O)CCNC(=O)c7cc(NC(=O)c8nccn8C)cn7C)cn6C)cn5C)cn4C)CC3)CC1)c1nnc(C)n1-2 [Compound 138], the EC50 is reported as < 100 nM.
Cc1sc2c(c1C)C(c1ccc(Cl)cc1)=N[C@@H](CC(=O)N1CCC(CN3CCN(CCOCCOCCOCCOCCOCCOCCOCCNC(=O)CCNC(=O)c4nc(NC(=O)CCNC(=O)c5cc(NC(=O)c6nc(NC(=O)CCNC(=O)c7cc(NC(=O)c8nccn8C)cn7C)cn6C)cn5C)cn4C)CC3)CC1)c1nnc(C)n1-2 [Compound 55] gave an EC50 of 100 to 500 nM.
In the case of COc1ccc2c(c1)C(c1ccc(Cl)cc1)=N[C@@H](CC(=O)N1CCN(CC3CCN(CCOCCOCCOCCOCCOCCOCCOCCNC(=O)CCNC(=O)c4nc(NC(=O)CCNC(=O)c5cc(NC(=O)c6nc(NC(=O)CCNC(=O)c7cc(NC(=O)c8nccn8C)cn7C)cn6C)cn5C)cn4C)CC3)CC1)c1nnc(C)n1-2 [Compound 46], the EC50 is reported as > 500 nM.
With CC(=O)N1c2ccc(-c3ccc(C(=O)N4CCC(C#CC#CC5CCN(CCOCCOCCNC(=O)CCNC(=O)c6nc(NC(=O)CCNC(=O)c7cc(NC(=O)c8nc(NC(=O)CCNC(=O)c9cc(NC(=O)c%10nccn%10C)cn9C)cn8C)cn7C)cn6C)CC5)CC4)cc3)cc2C(Nc2ccc(Cl)cc2)C[C@@H]1C (some centres unmarked) [Compound 144] the EC50 was < 100 nM.
Cc1sc2c(c1C)C(c1ccc(Cl)cc1)=N[C@@H](CC(=O)NC1CCN(CC#CC#CC3CCN(CCOCCOCCOCCOCCOCCOCCOCCNC(=O)CCNC(=O)c4nc(NC(=O)CCNC(=O)c5cc(NC(=O)c6nc(NC(=O)CCNC(=O)c7cc(NC(=O)c8nccn8C)cn7C)cn6C)cn5C)cn4C)CC3)CC1)c1nnc(C)n1-2 [Compound 157] was tested, and the EC50 was < 100 nM.
In the case of CC(=O)N1c2ccc(-c3ccc(C(=O)N4CCC(C#CC#CC5CCN(CCOCCOCCOCCOCCNC(=O)CCNC(=O)c6nc(NC(=O)CCNC(=O)c7cc(NC(=O)c8nc(NC(=O)CCNC(=O)c9cc(NC(=O)c%10nccn%10C)cn9C)cn8C)cn7C)cn6C)CC5)CC4)cc3)cc2C(Nc2ccc(Cl)cc2)C[C@@H]1C (some centres unmarked) [Compound 145], the EC50 is reported as < 100 nM.
In the case of Cc1cc(F)cc(C)c1Oc1ccc(C(C)(C)O)cc1-c1cn(C)c(=O)c2[nH]c(C(=O)Nc3ccc(OCCOCCOCCOCCOCCOCCOCCOCCOCCOCCNC(=O)CCNC(=O)c4nc(NC(=O)CCNC(=O)c5cc(NC(=O)c6nc(NC(=O)CCNC(=O)c7cc(NC(=O)c8nccn8C)cn7C)cn6C)cn5C)cn4C)cc3)cc12 [Compound 195], the EC50 is reported as < 100 nM.
With Cc1sc2c(c1C)C(c1ccc(Cl)cc1)=N[C@@H](CC(=O)NC1CCN(CCOCCOCCOCCOCCOCCOCCOCCN3CCN(C(=O)CCNC(=O)c4nc(NC(=O)CCNC(=O)c5nc(NC(=O)c6nc(NC(=O)CCNC(=O)c7cc(NC(=O)c8nccn8C)cn7C)cn6C)cn5C)cn4C)CC3)CC1)c1nnc(C)n1-2 [Compound 98] the EC50 was 100 to 500 nM.
With COCCOCCOCCOCCOCCOCCOCCOCCN(CCCCCn1cc(NC(=O)c2nc(NC(=O)CCNC(=O)c3cc(NC(=O)c4nccn4C)cn3C)cn2C)cc1C(=O)NCCC(=O)Nc1cn(C)c(C(=O)NCCC(=O)NCCOCCOCCOCCOCCOCCOCCOCCOCCOc2ccc(NC(=O)c3cc4c(-c5cc(C(C)(C)O)ccc5Oc5c(C)cc(F)cc5C)cn(C)c(=O)c4[nH]3)cc2)n1)CCOCCOCCOCCOCCOCCOCCOCCOC [Compound 242] the EC50 was < 100 nM.
